Key:
Format in all cases: in vivo
[1] = test system: Alopecurus myosuroides; assay: Test Example 4: herbicidal effect by application to foliage (diluvial soil, plastic box); conditions: application to foliage, 320 g/ha
Outline: (§1)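 Emulsion-formulated compound, diluted to a predetermined g/ha dose, applied by small sprayer to leaves and stems of 14-day-old seedlings grown in sterilized diluvial soil. Effect rated on 0–5 herbicidal-ratio scale three weeks on.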

[2] = test system: Setaria viridis; assay: as above; conditions: application to foliage, 320 g/ha
Outline: as §1

[3] = test system: Stellaria media; assay: as above; conditions: application to foliage, 320 g/ha
Outline: as §1

[4] = test system: Amaranthus retroflexus; assay: as above; conditions: application to foliage, 320 g/ha
Outline: as §1

[5] = test system: Lolium multiflorum Lam.; assay: as above; conditions: application to foliage, 320 g/ha
Outline: as §1

[6] = test system: Digitaria ciliaris; assay: as above; conditions: application to foliage, 320 g/ha
Outline: as §1

[7] = test system: Monochoria vaginalis; assay: Test Example 1: herbicidal activity, application before weed generation in submerged conditions; conditions: Application herbicide amount 320 g/ha; Seventeenth Table
Outline: (§2)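 Rating, on a six-step scale from almost no effect (0) to almost completely withered (5), was made three weeks after pre-emergence treatment. Treatment was surface application to flooded pots at g/ha rates, with plants kept at 25° C. to 30° C.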

[8] = test system: Scirpus juncoides; assay: as above; conditions: Application herbicide amount 320 g/ha; Seventeenth Table
Outline: as §2

[9] = test system: Echinochloa oryzacola Vasing.; assay: as above; conditions: Application herbicide amount 320 g/ha; Seventeenth Table
Outline: as §2

SMILES	herbicidal effect, J (Alopecurus myosuroides) [1]	herbicidal effect, G (Setaria viridis) [2]	herbicidal effect, P (Stellaria media) [3]	herbicidal effect, N (Amaranthus retroflexus) [4]	herbicidal effect, K (Lolium multiflorum Lam.) [5]	herbicidal effect, F (Digitaria ciliaris) [6]	C: Monochoria vaginalis (herbicidal effect grade) [7]	B: Scirpus juncoides (herbicidal effect grade) [8]	A: Echinochloa oryzicola Vasing. (herbicidal effect grade) [9]
Cn1nnnc1NC(=O)c1ccc(C(F)(F)F)n2c(N3CCSCC3)nnc12 [2-078]	4 (Herbicidal ratio of 70% or more and less than 90%)	5 (Herbicidal ratio of 90% or more (almost completely withered))	5 (Herbicidal ratio of 90% or more (almost completely withered))	5 (Herbicidal ratio of 90% or more (almost completely withered))	4 (Herbicidal ratio of 70% or more and less than 90%)	5 (Herbicidal ratio of 90% or more (almost completely withered))	2 (Herbicidal ratio of 20% or more and less than 40%)	4 (Herbicidal ratio of 70% or more and less than 90%)	5 (Herbicidal ratio of 90% or more (almost completely withered))
COCCN(C)c1nnc2c(C(=O)Nc3nnnn3C)ccc(C(F)(F)F)n12 [2-079]	4 (Herbicidal ratio of 70% or more and less than 90%)	5 (Herbicidal ratio of 90% or more (almost completely withered))	5 (Herbicidal ratio of 90% or more (almost completely withered))	5 (Herbicidal ratio of 90% or more (almost completely withered))	2 (Herbicidal ratio of 20% or more and less than 40%)	5 (Herbicidal ratio of 90% or more (almost completely withered))	5 (Herbicidal ratio of 90% or more (almost completely withered))	5 (Herbicidal ratio of 90% or more (almost completely withered))	5 (Herbicidal ratio of 90% or more (almost completely withered))
CSCCNc1nnc2c(C(=O)Nc3nnnn3C)ccc(C(F)(F)F)n12 [2-080]	1 (Herbicidal ratio of 5% or more and less than 20%)	3 (Herbicidal ratio of 40% or more and less than 70%)	4 (Herbicidal ratio of 70% or more and less than 90%)	5 (Herbicidal ratio of 90% or more (almost completely withered))	0 (Herbicidal ratio of 5% or less (almost no effect))	5 (Herbicidal ratio of 90% or more (almost completely withered))	0 (Herbicidal ratio of 5% or less (almost no effect))	0 (Herbicidal ratio of 5% or less (almost no effect))	3 (Herbicidal ratio of 40% or more and less than 70%)
Cn1nnnc1NC(=O)c1ccc(C(F)(F)F)n2c(NCC(F)(F)F)nnc12 [2-081]	1 (Herbicidal ratio of 5% or more and less than 20%)	3 (Herbicidal ratio of 40% or more and less than 70%)	5 (Herbicidal ratio of 90% or more (almost completely withered))	5 (Herbicidal ratio of 90% or more (almost completely withered))	1 (Herbicidal ratio of 5% or more and less than 20%)	4 (Herbicidal ratio of 70% or more and less than 90%)	4 (Herbicidal ratio of 70% or more and less than 90%)	3 (Herbicidal ratio of 40% or more and less than 70%)	4 (Herbicidal ratio of 70% or more and less than 90%)
CC(C)N(C)c1nnc2c(C(=O)Nc3nnnn3C)ccc(C(F)(F)F)n12 [2-082]	4 (Herbicidal ratio of 70% or more and less than 90%)	5 (Herbicidal ratio of 90% or more (almost completely withered))	5 (Herbicidal ratio of 90% or more (almost completely withered))	5 (Herbicidal ratio of 90% or more (almost completely withered))	4 (Herbicidal ratio of 70% or more and less than 90%)	5 (Herbicidal ratio of 90% or more (almost completely withered))	5 (Herbicidal ratio of 90% or more (almost completely withered))	5 (Herbicidal ratio of 90% or more (almost completely withered))	5 (Herbicidal ratio of 90% or more (almost completely withered))
CN(c1nnc2c(C(=O)Nc3nnnn3C)ccc(C(F)(F)F)n12)C1CCCCC1 [2-083]	1 (Herbicidal ratio of 5% or more and less than 20%)	4 (Herbicidal ratio of 70% or more and less than 90%)	4 (Herbicidal ratio of 70% or more and less than 90%)	5 (Herbicidal ratio of 90% or more (almost completely withered))	1 (Herbicidal ratio of 5% or more and less than 20%)	5 (Herbicidal ratio of 90% or more (almost completely withered))	4 (Herbicidal ratio of 70% or more and less than 90%)	5 (Herbicidal ratio of 90% or more (almost completely withered))	5 (Herbicidal ratio of 90% or more (almost completely withered))
Cn1nnnc1NC(=O)c1ccc(C(F)(F)F)n2c(SCC3CC3)nnc12 [2-084]	3 (Herbicidal ratio of 40% or more and less than 70%)	5 (Herbicidal ratio of 90% or more (almost completely withered))	5 (Herbicidal ratio of 90% or more (almost completely withered))	5 (Herbicidal ratio of 90% or more (almost completely withered))	3 (Herbicidal ratio of 40% or more and less than 70%)	5 (Herbicidal ratio of 90% or more (almost completely withered))	4 (Herbicidal ratio of 70% or more and less than 90%)	5 (Herbicidal ratio of 90% or more (almost completely withered))	5 (Herbicidal ratio of 90% or more (almost completely withered))
Cn1nnnc1NC(=O)c1ccc(C(F)(F)F)n2c(SCC3CCCO3)nnc12 (stereo not drawn) [2-085]	3 (Herbicidal ratio of 40% or more and less than 70%)	5 (Herbicidal ratio of 90% or more (almost completely withered))	5 (Herbicidal ratio of 90% or more (almost completely withered))	5 (Herbicidal ratio of 90% or more (almost completely withered))	3 (Herbicidal ratio of 40% or more and less than 70%)	5 (Herbicidal ratio of 90% or more (almost completely withered))	4 (Herbicidal ratio of 70% or more and less than 90%)	5 (Herbicidal ratio of 90% or more (almost completely withered))	5 (Herbicidal ratio of 90% or more (almost completely withered))
Cn1nnnc1NC(=O)c1ccc(C(F)(F)F)n2c(SCC#N)nnc12 [2-086]	1 (Herbicidal ratio of 5% or more and less than 20%)	5 (Herbicidal ratio of 90% or more (almost completely withered))	4 (Herbicidal ratio of 70% or more and less than 90%)	5 (Herbicidal ratio of 90% or more (almost completely withered))	2 (Herbicidal ratio of 20% or more and less than 40%)	5 (Herbicidal ratio of 90% or more (almost completely withered))	3 (Herbicidal ratio of 40% or more and less than 70%)	2 (Herbicidal ratio of 20% or more and less than 40%)	3 (Herbicidal ratio of 40% or more and less than 70%)
Cn1nnnc1NC(=O)c1ccc(C(F)(F)F)n2c(SCC(F)(F)F)nnc12 [2-087]	3 (Herbicidal ratio of 40% or more and less than 70%)	4 (Herbicidal ratio of 70% or more and less than 90%)	5 (Herbicidal ratio of 90% or more (almost completely withered))	4 (Herbicidal ratio of 70% or more and less than 90%)	3 (Herbicidal ratio of 40% or more and less than 70%)	5 (Herbicidal ratio of 90% or more (almost completely withered))	4 (Herbicidal ratio of 70% or more and less than 90%)	5 (Herbicidal ratio of 90% or more (almost completely withered))	5 (Herbicidal ratio of 90% or more (almost completely withered))
